Earlier results, collected in US20170326066A1, “METHOD OF TREATING HYPERTENSION” (Ezra Pharma LLC, priority 2016, published 2017).

In the case of `CCCCC(=O)N(Cc1ccc(-c2ccccc2-c2nnn[nH]2)cc1)[C@H](C(=O)O)C(C)C` [valsartan], the “peak plasma concentration reduced to” value (by 12 hours) is given as “approximately 65%”, the “time by which plasma levels reach very low level” value (following Cmax) is given as 10 to 12 h and the half-life (in vivo) is given as “about 6 hours”. For the same compound, the Tmax (oral administration) was 2 to 4 h, the absolute bioavailability (oral administration) was “about 25%” and the “absolute bioavailability (range)” value (oral administration) was 10-35%.
